Results on five compounds are retold here after patent US10723694B2, “Propargyl-functionalized macrocyclic compounds” (KUWAIT UNIVERSITY, priority 2018, dated 2020).

Holding throughout (format): physicochemical
Data set [1] in a line: Ground state electronic absorption spectra (UV-Vis) in DMF. To be noted: for log ε at λmax / λmax (Q band absorption): in DMF. The protocol:
Electronic absorption, which is measured by UV-Vis spectroscopy, is one of the best spectroscopic techniques for determination of Pc formation and characterization of Pc compounds. Generally, two absorption bands are observed for Pc structures in their electronic absorption spectra. One band, known as Q, is observed at around 600-750 nm due to the π→π* transitions from the highest occupied molecular orbital (HOMO) to the lowest unoccupied molecular orbital (LUMO) of the Pc ring, while the other band, known as B, or the Soret band, is observed at around 300-450 nm due to transitions from deeper it levels to the LUMO. The ground state electronic absorption spectra of the studied novel Pcs were measured in DMF solution.
The ground state electronic absorption spectra show monomeric behavior evidenced by single (narrow) Q band absorptions, which is typical for metallated complexes. The Q bands appear around 680 nm for the symmetric Pc2 and both asymmetric Pc3 and Pc4 in DMF (Table 1). On the other hand, the non-peripheral Pc5 show approximately 20 nm red-shifted Q band absorption at 700 nm when compared to the peripheral counterparts in the solvent (Table 1). The observed red spectral shifts are typical for Pc molecules with substituents at the non-peripheral positions and are presumably due to linear combinations of the atomic orbitals (LCAO) coefficients at the non-peripheral positions of the HOMO being greater than those at the peripheral positions. As a result, the HOMO level is destabilized more at the non-peripheral site than it is at the peripheral one. Essentially, the energy gap (ΔE) between the HOMO and LUMO becomes smaller, resulting in a bathochromic shift. The 49 nm blue shift for AzaPc1 is caused by the additional nitrogen atoms instead of CH groups in the Pc macrocyclic system. The B-bands are broad due to the superimposition of the B1 and B2 bands in the 340 to 380 nm region.

Data set [2] is described as follows: Fluorescence excitation and emission spectra in DMF. The conditions noted are these: for Stokes shift ΔStokes: difference between excitation and emission maxima. The protocol:
Fluorescence behaviors of the AzaPc1/Pc2-Pc5 compounds were evaluated in DMF solutions. FIGS. 12A-12E show absorption, fluorescence emission and excitation spectra of these complexes.
Excitation maxima appear at 629 nm for AzaPc1, 679 nm for Pc2, 678 nm for Pc3, 682 nm for Pc4 and 700 nm for Pc5 in DMF. Emission maxima appear at 639 nm, 683 nm, 686 nm, 688 nm and 707 nm for AzaPc1/Pc2-Pc5, respectively. The observed Stokes' shifts, which are differences between the excitation and emission wavelength maxima, are between 4 and 10 nm for all of the zinc (II) complexes (Table 1). The observed Stokes' shifts are consistent with those of typical zinc (II) phthalocyanine complexes.

Data set [3] in a line: Fluorescence quantum yield determination. To be noted: DMF per text (Table 2 title prints DMSO). The text has this: Fluorescence emission occurs when an orbital electron of a photosensitizer relaxes from its singlet state to ground state upon emitting a photon of light. Fluorescence quantum yield (ΦF) indicates a measure of the efficiency of the fluorescence process and is defined as the ratio of the number of photons emitted to the number of photons absorbed. The fluorescence quantum yields (ΦF) may be determined using established methods described in existing literature. The ΦF values of the present AzaPc1/Pc2-Pc5 compounds are typical for those phthalocyanine compounds (Table 2). Particularly, ΦF values were measured to be 0.11 for AzaPc1, 0.16 for Pc2, 0.17 for Pc3, 0.14 for Pc4 and 0.11 for Pc5 in the exemplary DMF solvent system.

Data set [4] is described as follows: Fluorescence lifetime by time correlated single photon counting (TCSPC). The conditions noted are these: DMF. The protocol:
Fluorescence lifetime (τF) refers to the average time that a molecule stays in its excited state before returning to its ground state by photon emission. The fluorescence lifetime values of the AzaPc1/Pc2-Pc5 compounds were determined by using time correlated single photon counting (TCSPC). All time-resolved fluorescence studies were carried out for the exemplary compounds in solution in DMF, and the fluorescence decays of the macrocycles were concluded in mono exponential curves.

Data set [5] is described as follows: Singlet oxygen quantum yield, chemical method with DPBF quencher. To be noted: DMF, 414 nm. The text has this:
Transferring of energy from a triplet state of a photosensitizer such as Pc to ground state molecular oxygen leads to the production of singlet oxygen. There is a necessity of high efficiency of energy transfer between the excited triplet state of photosensitizer and the ground state of oxygen in order to generate large amounts of singlet oxygen, essential for PDT applications. The singlet oxygen quantum yield (ΦA) values give the amount of the generated singlet oxygen. This value is an indication of the potential provided by the compounds as photosensitizers in applications where singlet oxygen is required. The ΦΔ values for AzaPc1/Pc2-Pc5 were determined in DMF by a chemical method using 1,3-diphenylisobenzofuran (DPBF) as a quencher. The disappearance of DPBF at 414 nm was monitored using UV-Vis spectrophotometer. Many factors can be responsible for the magnitude of the determined singlet oxygen quantum yield, including triplet excited state energy, ability of substituents and solvents to quench the singlet oxygen, the triplet excited state lifetime and the efficiency of the energy transfer between the triplet excited state and the ground state of oxygen.

Data set [6] is described as follows: Photodegradation under light irradiation. The conditions noted are these: DMF. The text has this: Photodegradation is an indicator of the stability of compounds, which is useful for determining the photosensitizing ability of the compounds as PDT agents. The stability of photosensitizers under light irradiation is important for photochemical processes such as PDT because photosensitizers need to survive for a specific period in the body. Photodegradation degree can be detected by photodegradation quantum yield (Φd), which depends on structure, light intensity, solvent used and concentration of a compound of interest. Photodegradation of a compound under light irradiation can be used to study the compound stability, which is important for those molecules intended for the application in photocatalytic reactions. Collapse of absorption spectra without any distortion of the shape of the absorption spectra confirms photo-degradation not associated with photo-transformation into different forms of Pcs absorbing light in the visible region. The spectral changes for all of the exemplary AzaPc1/Pc2-Pc5 compounds were determined in response to light irradiation, and photodegradation occurred without phototransformation, because only Q and B bands were decreased, i.e., no new band formation was observed.
Pc derivatives and their macrocyclic analogs generate singlet oxygen when they are illuminated by an appropriate light. The formed […] via photooxidation reactions. Generally, photodegradation of Pc/Pc-analog compounds by light irradiation results in formation of the phthalamide residue. The photodegradation behavior of AzaPc1/Pc2-Pc5 in DMF were determined. The Φd values of these novel systems are on the order of 10^−4 (Table 2), consistent with values for other Pcs containing different metals and substituents.

Data set [7] can be described thus: Aggregation studies (UV-Vis) in organic solvents and at different concentrations. The text has this:
Macrocycle Pcs generate high aggregation tendencies due to the intermolecular interactions that take place between their 18 π-electrons. Accordingly, this self-association process would minimize their solubility in most solvent systems and therefore affect their spectroscopic, photophysical, photochemical, and electrochemical properties. Generally, aggregation is highly dependent on the concentration, temperature, nature of the substituents and/or their position and orientation with respect to the Pc skeleton, nature of the solvent media, and the central metal ion in the Pc-cores.
Pc molecules can form two types of aggregates in dissolved systems—H-type and J-type-depending on the nature, position and/or orientation of the substituents. In general, Pcs form H-type aggregates in solution, whereas J-type aggregates occur rarely. The formation of J-type aggregates among Pc structures is significant, since J-type aggregation is photoactive, while H-type aggregation is not.
The aggregation properties for the AzaPc1/Pc2-Pc5 compounds were determined in different organic solvents, namely, DCM, chloroform, DMF, DMSO, ethanol, methanol, THF and toluene.
Aggregation behaviors for the AzaPc1/Pc2-Pc5 compounds were also investigated in DMF at different concentrations in order to establish a suitable concentration for further photophysical/photochemical studies.

For `C#CCOCc1cc(C)cc(COCC#C)c1Oc1nc2c(nc1Oc1c(COCC#C)cc(C)cc1COCC#C)C1=Nc3c4nc(Oc5c(COCC#C)cc(C)cc5COCC#C)c(Oc5c(COCC#C)cc(C)cc5COCC#C)nc4c4[n]3[Zn][n]3c(c5nc(Oc6c(COCC#C)cc(C)cc6COCC#C)c(Oc6c(COCC#C)cc(C)cc6COCC#C)nc5c3=NC3=NC(=N4)c4nc(Oc5c(COCC#C)cc(C)cc5COCC#C)c(Oc5c(COCC#C)cc(C)cc5COCC#C)nc43)=NC2=N1` [AzaPc1], the “Blue shift of Q band absorption” value in data set [1] (DMF, aza analogue versus Pc macrocycle) worked out at 49 nm. For the same compound, in data set [1], the “log ε at λmax” value came to 5.07 and the “λmax (Q band absorption)” value came to 629 nm. Besides, in data set [2], the “λEm (emission maximum)” value was found to be 639 nm, the “λEx (excitation maximum)” value came to 629 nm and the “Stokes shift ΔStokes” value is listed as 10 nm. In addition, the “Fluorescence quantum yield ΦF” value in data set [3] is recorded as 0.14. In data set [4], the “Fluorescence lifetime τF” value turned out to be 2.46 ns. The “Singlet oxygen quantum yield ΦΔ” value in data set [5] is on record as 0.63. Further, the “Photodegradation quantum yield Φd (×10^−4)” value in data set [6] is recorded as 4.30 ×10^−4.

In the case of `C#CCOCc1cc(C)cc(COCC#C)c1Oc1cc2c(cc1Oc1c(COCC#C)cc(C)cc1COCC#C)C1=Nc3c4cc(Oc5c(COCC#C)cc(C)cc5COCC#C)c(Oc5c(COCC#C)cc(C)cc5COCC#C)cc4c4[n]3[Zn][n]3c(c5cc(Oc6c(COCC#C)cc(C)cc6COCC#C)c(Oc6c(COCC#C)cc(C)cc6COCC#C)cc5c3=NC3=NC(=N4)c4cc(Oc5c(COCC#C)cc(C)cc5COCC#C)c(Oc5c(COCC#C)cc(C)cc5COCC#C)cc43)=NC2=N1` [Pc2], the “log ε at λmax” value in data set [1] came out at 5.33. In data set [2], the “λEm (emission maximum)” value is 683 nm, the “λEx (excitation maximum)” value came out at 679 nm and the “Stokes shift ΔStokes” value is on record as 4 nm. For the same compound, the “Fluorescence quantum yield ΦF” value in data set [3] is reported as 0.16. Further, the “Fluorescence lifetime τF” value in data set [4] stood at 3.30 ns. Besides, the “Singlet oxygen quantum yield ΦΔ” value in data set [5] worked out at 0.60. In data set [6], the “Photodegradation quantum yield Φd (×10^−4)” value is reported as 1.58 ×10^−4.

With `C#CCOCc1cc(C)cc(COCC#C)c1Oc1cc2c(cc1Cl)C1=Nc3c4cc(Oc5c(COCC#C)cc(C)cc5COCC#C)c(Cl)cc4c4[n]3[Zn][n]3c(c5cc(Cl)c(Oc6c(COCC#C)cc(C)cc6COCC#C)cc5c3=NC3=NC(=N4)c4cc(Oc5c(COCC#C)cc(C)cc5COCC#C)c(Cl)cc43)=NC2=N1` [Pc3], in data set [1], the “log ε at λmax” value is 5.33. Further, in data set [2], the “λEm (emission maximum)” value came to 686 nm, the “λEx (excitation maximum)” value is listed as 678 nm and the “Stokes shift ΔStokes” value was 8 nm. Moreover, the “Fluorescence quantum yield ΦF” value in data set [3] was determined as 0.17. Further, the “Fluorescence lifetime τF” value in data set [4] is listed as 2.84 ns. Further, the “Singlet oxygen quantum yield ΦΔ” value in data set [5] is 0.60. Further, the “Photodegradation quantum yield Φd (×10^−4)” value in data set [6] was 1.40 ×10^−4.

Take `C#CCOCc1cc(C)cc(COCC#C)c1Oc1ccc2c(c1)C1=NC2=Nc2c3cc(Oc4c(COCC#C)cc(C)cc4COCC#C)ccc3c3[n]2[Zn][n]2c(c4ccc(Oc5c(COCC#C)cc(C)cc5COCC#C)cc4c2=NC2=NC(=N3)c3cc(Oc4c(COCC#C)cc(C)cc4COCC#C)ccc32)=N1` [Pc4]: the “log ε at λmax” value in data set [1] turned out to be 5.21. In addition, in data set [2], the “λEm (emission maximum)” value was found to be 688 nm, the “λEx (excitation maximum)” value was found to be 682 nm and the “Stokes shift ΔStokes” value is recorded as 6 nm. For the same compound, the Aggregation in methanol result in data set [7] is “small H-type aggregates were detected”. Besides, the “Fluorescence quantum yield ΦF” value in data set [3] was 0.14. The “Fluorescence lifetime τF” value in data set [4] worked out at 3.37 ns. Besides, the “Singlet oxygen quantum yield ΦΔ” value in data set [5] is 0.57. Moreover, in data set [6], the “Photodegradation quantum yield Φd (×10^−4)” value is recorded as 1.12 ×10^−4.

For the compound `[Zn+2].c1ccc2c(c1)-c1nc-2nc2[n-]c(nc3nc([n-]c4nc(n1)-c1ccccc1-4)-c1ccccc1-3)c1ccccc21` [Std-ZnPc, zinc(II) phthalocyanine, reference compound], in data set [1], the “log ε at λmax” value was found to be 5.37 and the “λmax (Q band absorption)” value was determined as 670 nm. In data set [2], the “λEm (emission maximum)” value came out at 676 nm, the “λEx (excitation maximum)” value was found to be 670 nm and the “Stokes shift ΔStokes” value amounted to 6 nm. For the same compound, the “Fluorescence quantum yield ΦF” value in data set [3] stood at 0.17. Further, the “Fluorescence lifetime τF” value in data set [4] is given as 1.03 ns. Moreover, the “Singlet oxygen quantum yield ΦΔ” value in data set [5] is reported as 0.56. Further, the “Photodegradation quantum yield Φd (×10^−4)” value in data set [6] is reported as 0.23 ×10^−4.
